What was measured:
[1] = tested on: EL-4 T cell thymic lymphoma; assay: EL-4 tumour challenge in mice fed experimental diets (tumour growth, rejection, response to paclitaxel); assay type: in vivo, C57BL/6 mice; settings: Example 1; control diet; paclitaxel 30 mg/Kg i.p. at tumours ~0.6 cm
[2] = daily for several years; cited from earlier work
[3] = tested on: EL-4 target cells; assay: Anti-tumour cytolytic activity of splenocytes (CTL assay); assay type: cell-based, mouse; settings: Example 4; high dose vitamin D (45.2 mg/Kg) by itself or Fe-saturated Lf
Description: Splenocytes were harvested 28 days following tumour cell injection, as specified. They were incubated at 37° C. with EL-4 target cells in graded E:T ratios in 96-well round-bottom plates. After a 4-hour incubation, 50 μl of supernatant was collected, and lysis was measured using the Cyto Tox 96 Assay Kit (Promega, Madison, Wis., USA). Background controls for non-specific target and effector cell lysis were included. After background subtraction, percentage of cell lysis was calculated using the formula: 100×(experimental-spontaneous effector-spontaneous target/maximum target-spontaneous target).

Row | Structure (SMILES) | tumour response to paclitaxel [1] | daily ingestion after which most cases of toxicity were reported [2] | increase in anti-tumour cytolytic activity of splenocytes, agent by itself [3]
1 | CC(=O)O[C@H]1C(=O)[C@@]2(C)[C@H]([C@H](OC(=O)c3ccccc3)[C@]3(O)C[C@H](OC(=O)[C@H](O)[C@@H](NC(=O)c4ccccc4)c4ccccc4)C(C)=C1C3(C)C)[C@]1(OC(C)=O)CO[C@@H]1C[C@@H]2O [paclitaxel, reference compound] | completely resistant | – | –
2 | C=C1CC[C@H](O)C/C1=C/C=C1\CCC[C@]2(C)[C@@H]([C@H](C)CCCC(C)C)CC[C@@H]12 [vitamin D, cholecalciferol, reference compound] | – | greater than 50,000 IU | 1.9 fold

From patent publication US20100092497A1, “METHODS OF IMMUNE OR HAEMATOLOGICAL ENHANCEMENT, INHIBITING TUMOUR FORMATION OR GROWTH, AND TREATING OR PREVENTING CANCER” (priority 2006, published 2010)
